In ChEMBL document CHEMBL5247656, “Discovery of a Potent, Cooperative, and Selective SOS1 PROTAC ZZ151 with In Vivo Antitumor Efficacy in KRAS-Mutant Cancers” (J Med Chem, 2023):
The source made the active and inactive calls. The calls are words filed in the database; no cut-off is given here.

What was measured:
[1] = molecular target: T1, von Hippel-Lindau disease tumor suppressor/Son of sevenless homolog 1 (Homo sapiens) (UniProt Q07889+P40337); experiment: PROTAC activity at VHL/SOS1 in human NCI-H358 cells assessed as induction of SOS1 protein degradation by measuring maximal efficacy at 2 to 2000 nM incubated for 24 hrs by Immunoblot analysis relative to control; type: cell-based; conditions: dose 2-2000 nM
[2] = molecular target: T2, Son of sevenless homolog 1 (Homo sapiens) (UniProt Q07889); experiment: Co-operativity factor, ratio of Kd for binding affinity to GST-tagged human SOS1 (564 to 1049 reisudes) expressed in Escherichia coli BL21 (DE3) cells assessed as binary complex formation to Kd for binding affinity to GST-tagged human SOS1 (564 to 1049 residues) expressed in Escherichia coli BL21 (DE3) cells assessed as ternary complex formation in the presence of 6His tagged human VCB
T2 sequence (whole entry): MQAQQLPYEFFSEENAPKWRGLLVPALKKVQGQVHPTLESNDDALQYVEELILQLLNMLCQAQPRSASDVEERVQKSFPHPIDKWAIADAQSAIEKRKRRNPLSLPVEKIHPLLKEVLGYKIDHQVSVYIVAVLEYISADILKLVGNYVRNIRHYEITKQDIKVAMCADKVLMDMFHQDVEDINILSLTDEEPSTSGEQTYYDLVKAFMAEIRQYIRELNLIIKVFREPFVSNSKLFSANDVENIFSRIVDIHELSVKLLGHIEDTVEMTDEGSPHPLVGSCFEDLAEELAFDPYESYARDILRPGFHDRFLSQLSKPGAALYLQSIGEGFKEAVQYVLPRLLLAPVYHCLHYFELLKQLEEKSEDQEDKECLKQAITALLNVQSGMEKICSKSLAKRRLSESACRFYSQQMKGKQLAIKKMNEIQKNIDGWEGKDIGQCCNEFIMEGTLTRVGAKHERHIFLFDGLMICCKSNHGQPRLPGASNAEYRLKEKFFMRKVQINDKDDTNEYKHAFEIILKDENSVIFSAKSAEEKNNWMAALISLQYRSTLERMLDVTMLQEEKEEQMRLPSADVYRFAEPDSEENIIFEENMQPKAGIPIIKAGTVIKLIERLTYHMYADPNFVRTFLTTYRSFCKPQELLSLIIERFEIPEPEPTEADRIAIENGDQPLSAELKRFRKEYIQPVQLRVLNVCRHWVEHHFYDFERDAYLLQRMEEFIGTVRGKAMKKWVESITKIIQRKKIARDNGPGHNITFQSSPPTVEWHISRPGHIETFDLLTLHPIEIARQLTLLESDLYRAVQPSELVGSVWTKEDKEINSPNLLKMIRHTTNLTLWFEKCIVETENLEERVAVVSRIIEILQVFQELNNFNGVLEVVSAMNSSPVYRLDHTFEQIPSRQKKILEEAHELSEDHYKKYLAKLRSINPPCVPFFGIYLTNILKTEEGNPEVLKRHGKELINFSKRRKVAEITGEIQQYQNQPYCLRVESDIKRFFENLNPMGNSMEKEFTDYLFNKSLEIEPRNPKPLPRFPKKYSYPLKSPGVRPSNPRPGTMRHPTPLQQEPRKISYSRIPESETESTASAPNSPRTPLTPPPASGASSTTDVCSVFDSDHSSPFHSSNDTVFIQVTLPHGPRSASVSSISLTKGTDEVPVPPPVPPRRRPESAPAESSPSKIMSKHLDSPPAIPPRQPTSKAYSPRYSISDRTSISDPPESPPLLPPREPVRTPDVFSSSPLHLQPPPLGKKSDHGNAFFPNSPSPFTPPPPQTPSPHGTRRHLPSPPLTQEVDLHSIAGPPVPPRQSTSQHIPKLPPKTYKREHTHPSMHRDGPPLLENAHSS

[3] = molecular target: T3, Son of sevenless homolog 1 (Homo sapiens, UniProt Q07889); experiment: (§1) Binding affinity to GST-tagged human SOS1 (564 to 1049 residues) expressed in Escherichia coli BL21 (DE3) cells assessed as binary complex formation by measuring dissociation constant incubated for 15 mins by fluorescence polarization-based displacement assay
T3 sequence (Q07889 whole entry): T2 sequence (whole entry)

[4] = molecular target: T1, von Hippel-Lindau disease tumor suppressor/Son of sevenless homolog 1 (Homo sapiens); experiment: PROTAC activity at VHL/SOS1 in human NCI-H358 cells assessed as induction of SOS1 protein degradation at 0.1 uM incubated for 24 hrs by Immunoblot analysis relative to control; type: cell-based
[5] = molecular target: von Hippel-Lindau disease tumor suppressor/Son of sevenless homolog 1/Elongin-B/Elongin-C (Homo sapiens) (UniProt Q07889+P40337+Q15370+Q15369); experiment: Binding affinity to GST tagged human SOS1(564 to 1049 residues)-6his tagged human VHL (54 to 213 residues)-human ElonginC (17 to 112 residues)-human ElonginB (1 to 104 residues) expressed in Escherichia coli BL21 (DE3) cells assessed as ternary complex formation by measuring maximal HTRF signals incubated for 15 mins by HTRF analysis
[6] = molecular target: T1, von Hippel-Lindau disease tumor suppressor/Son of sevenless homolog 1 (Homo sapiens); experiment: PROTAC activity at VHL/SOS1 in human NCI-H358 cells assessed as induction of SOS1 protein degradation at 1.0 uM incubated for 24 hrs by Immunoblot analysis relative to control; type: cell-based
[7] = molecular target: T3, Son of sevenless homolog 1; experiment: as §1, with “ternary” for “binary”, “mins in the presence of 6His tagged human VCB” for “mins”
NCI-H358 = experiment: Antiproliferative activity against human NCI-H358 cells harboring KRAS G12C mutant assessed as inhibition of cell proliferation incubated for 7 days by CellTiterGlo-3D proliferation assay; type: functional, cell-based; conditions: NCI-H358, 168 h
SW-620 = experiment: Antiproliferative activity against human SW620 cells harboring KRAS G12V mutant assessed as inhibition of cell proliferation incubated for 7 days by CellTiterGlo-3D proliferation assay; type: functional, cell-based; conditions: SW-620, 168 h
ASPC1 = experiment: Antiproliferative activity against human ASPC1 cells harboring KRAS G12D mutant assessed as inhibition of cell proliferation incubated for 7 days by CellTiterGlo-3D proliferation assay; type: functional, cell-based; conditions: ASPC1, 168 h
A549 = experiment: Antiproliferative activity against human A549 cells harboring KRAS G12S mutant assessed as inhibition of cell proliferation incubated for 7 days by CellTiterGlo-3D proliferation assay; type: functional, cell-based; conditions: A549, 168 h
[8] = molecular target: T2, Son of sevenless homolog 1 (Homo sapiens); experiment: Induction of SOS1 degradation in human NCI-H358 cells at 0.1 to 1 uM incubated for 24 hrs by immunoblot analysis; type: cell-based; conditions: dose 0.1-1 µM
PANC-1 = experiment: Antiproliferative activity against human PANC-1 cells harboring KRAS G12D mutant assessed as inhibition of cell proliferation incubated for 7 days by CellTiterGlo-3D proliferation assay; type: functional, cell-based; conditions: PANC-1, 168 h
MIA PaCa-2 = experiment: Antiproliferative activity against human MIA PaCa-2 cells harboring KRAS G12C mutant assessed as inhibition of cell proliferation incubated for 7 days by CellTiterGlo-3D proliferation assay; type: functional, cell-based; conditions: MIA PaCa-2, 168 h
LoVo = experiment: Antiproliferative activity against human LoVo cells harboring KRAS G13D mutant assessed as inhibition of cell proliferation incubated for 7 days by CellTiterGlo-3D proliferation assay; type: functional, cell-based; conditions: 168 h
[9] = molecular target: von Hippel-Lindau disease tumor suppressor/Son of sevenless homolog 1 (Homo sapiens, UniProt P40337+Q07889); experiment: PROTAC activity at VHL/SOS1 in human NCI-H358 cells assessed as induction of SOS1 protein degradation incubated for 24 hrs by Immunoblot analysis; type: cell-based

Row | Emax [1] | Ratio [2] | Kd [3] | Activity [4] | Activity [5] | Activity [6] | Kd [7] | EC50 [9] | Structure (SMILES) | IC50 (NCI-H358) | IC50 (SW-620) | IC50 (ASPC1) | IC50 (A549) | Activity [8] | IC50 (PANC-1) | IC50 (MIA PaCa-2) | IC50 (LoVo)
1 | 9.1% | 2.7 | 44.2 nM | 9.77% | inactive | 10.7% | 16.3 nM |  | COc1cc2nc(C)nc(N[C@H](C)c3cc(N)cc(C(F)(F)F)c3)c2cc1C1CCN(CCCCCCC(=O)N[C@H](C(=O)N2C[C@H](O)C[C@H]2C(=O)N[C@@H](C)c2ccc(-c3scnc3C)cc2)C(C)(C)C)CC1 |  |  |  |  |  |  |  | 
2 | 37.6% | 2.8 | 95.4 nM | 0% | inactive | 22.9% | 33.6 nM |  | COc1cc2nc(C)nc(N[C@H](C)c3cc(N)cc(C(F)(F)F)c3)c2cc1C1CCN(C(=O)CCOCCC(=O)N[C@H](C(=O)N2C[C@H](O)C[C@H]2C(=O)N[C@@H](C)c2ccc(-c3scnc3C)cc2)C(C)(C)C)CC1 |  |  |  |  |  |  |  | 
3 | 39.7% | 2.9 | 78.6 nM | 25.2% | inactive | 47.3% | 27.1 nM |  | COc1cc2nc(C)nc(N[C@H](C)c3cc(N)cc(C(F)(F)F)c3)c2cc1C1CCN(C(=O)CCCCCCC(=O)N[C@H](C(=O)N2C[C@H](O)C[C@H]2C(=O)N[C@@H](C)c2ccc(-c3scnc3C)cc2)C(C)(C)C)CC1 |  |  |  |  |  |  |  | 
4 | 97.9% | 8.9 | 155 nM | 54.6% |  | 90.2% | 17.4 nM | 49.3 nM | COc1cc2nc(C)nc(N[C@H](C)c3cc(N)cc(C(F)(F)F)c3)c2cc1C1CCN(C(=O)COCCCC(=O)N[C@H](C(=O)N2C[C@H](O)C[C@H]2C(=O)N[C@@H](C)c2ccc(-c3scnc3C)cc2)C(C)(C)C)CC1 |  |  |  |  |  |  |  | 

Row | Structure (SMILES) | Emax [1] | Ratio [2] | Kd [3] | Activity [4] | Activity [5] | Activity [6] | Kd [7] | EC50 [9] | IC50 (NCI-H358) | IC50 (SW-620) | IC50 (ASPC1) | IC50 (A549) | Activity [8] | IC50 (PANC-1) | IC50 (MIA PaCa-2) | IC50 (LoVo)
5 | COc1cc2nc(C)nc(NC(C)c3cc(N)cc(C(F)(F)F)c3)c2cc1C1CCN(C(C)=O)CC1 (centres undefined) |  |  | 26.9 nM |  | inactive |  | 26.5 nM |  | 74.6 nM | 36.3 nM | 36.7 nM | 134 nM | inactive | 23.1 nM | 48.5 nM | 79.8 nM
